According to patent US20060258711A1, “Treatment of drug abuse” (Wyeth, priority 2005, published 2006):

Test system: rats
Experiment: Open field test of locomotor activity with or without cocaine
Type: in vivo, rat
Conditions: dosed 1 hour before 5-minute open field test
Method: Rats were dosed either with vehicle or with cocaine in the presence or absence of Compound 1 (0.1 mg/kg. sc). One hour after dosing (i.p. & s.c.), rats were put in a open field, where distance moved and zones crossed were recorded by the ethovision program.
Animals were brought to the lab room 1 hour before the start of the experiment. Rats were injected with compound(s) 1 hour before being placed in the open field. Rats were then placed in open field, and the test lasted for five minutes.

## NCC1Cc2cc(F)cc(-c3c(Cl)cccc3Cl)c2O1 (centres unmarked) [Compound 1, (7-(2,6-dichlorophenyl)-5-fluoro-2,3-dihydrobenzofuran-2-yl)methanamine]
0.1 mg/kg sc + cocaine 3 mg/kg ip, FIG. 1
  reversal of the hyperactivity produced by cocaine: completely reversed
0.1 mg/kg sc + vehicle
  effect on locomotor activity alone: no effect
